Measurements: ChEMBL document CHEMBL5625269, “Design, synthesis, and biological evaluation of novel benzo[6,7]indolo[3,4-c]isoquinolines as anticancer agents with topoisomerase I inhibition” (2024)
Activity calls are given as the source filed them. No cut-off for these calls is given here.

Tests used:
ACHN = test: Growth inhibition of human ACHN cells assessed as reduction in cell viability; format: functional
HCT-116 = test: Growth inhibition of human HCT-116 cells assessed as reduction in cell viability; format: functional
A549 = test: Growth inhibition of human A549 cells assessed as reduction in cell viability; format: functional
MKN-28 = test: Growth inhibition of human MKN-28 cells assessed as reduction in cell viability; format: functional
DU-145 = test: Growth inhibition of human DU-145 cells assessed as reduction in cell viability; format: functional
[1] = target: T1, DNA topoisomerase 1 (Homo sapiens) (UniProt P11387); test: Inhibition of human DNA topoisomerase 1 assessed as reduction in pBR322 DNA relaxation at 20 to 100 uM in presence of ethidium bromide by agarose gel electrophoresis method; details: dose 20-100 µM
T1 sequence (whole entry): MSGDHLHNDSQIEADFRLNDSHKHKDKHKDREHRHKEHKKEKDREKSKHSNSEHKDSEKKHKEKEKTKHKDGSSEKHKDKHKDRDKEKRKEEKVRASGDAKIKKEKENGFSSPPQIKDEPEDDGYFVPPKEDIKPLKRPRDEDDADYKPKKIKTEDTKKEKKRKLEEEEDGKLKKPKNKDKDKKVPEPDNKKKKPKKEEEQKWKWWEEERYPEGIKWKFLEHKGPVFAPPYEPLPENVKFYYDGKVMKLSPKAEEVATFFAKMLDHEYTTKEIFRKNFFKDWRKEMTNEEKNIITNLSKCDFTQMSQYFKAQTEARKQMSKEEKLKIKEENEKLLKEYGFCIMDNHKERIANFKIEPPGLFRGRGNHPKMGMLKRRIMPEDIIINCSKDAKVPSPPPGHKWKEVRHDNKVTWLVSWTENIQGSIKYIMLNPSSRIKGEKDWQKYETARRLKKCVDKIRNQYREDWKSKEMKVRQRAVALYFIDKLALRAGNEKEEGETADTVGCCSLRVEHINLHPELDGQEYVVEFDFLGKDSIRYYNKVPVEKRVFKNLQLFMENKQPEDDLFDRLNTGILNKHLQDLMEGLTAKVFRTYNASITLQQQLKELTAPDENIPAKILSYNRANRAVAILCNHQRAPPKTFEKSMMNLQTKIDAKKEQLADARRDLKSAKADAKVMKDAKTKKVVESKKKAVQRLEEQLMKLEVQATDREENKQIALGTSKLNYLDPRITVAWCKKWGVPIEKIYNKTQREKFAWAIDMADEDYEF

MCF7 = test: Growth inhibition of human MCF7 cells assessed as reduction in cell viability; format: functional
SK-OV-3 = test: Growth inhibition of human SK-OV-3 cells assessed as reduction in cell viability; format: functional
U-251 = test: Growth inhibition of human U-251 cells assessed as reduction in cell viability; format: functional
LOX IMVI = test: Growth inhibition of human LOX IMVI cells assessed as reduction in cell viability; format: functional
[2] = target: T1, DNA topoisomerase 1 (Homo sapiens); test: Inhibition of human DNA topoisomerase 1 assessed as reduction in pBR322 DNA relaxation at 20 to 100 uM by agarose gel electrophoresis method; details: dose 20-100 µM

Row | GI50 (ACHN) [nM] | GI50 (HCT-116) [nM] | GI50 (A549) [nM] | GI50 (MKN-28) [nM] | GI50 (DU-145) [nM] | inhibition [1] | GI50 (MCF7) [nM] | GI50 (SK-OV-3) [nM] | GI50 (U-251) [nM] | inhibition [2] | Compound | GI50 (LOX IMVI) [nM]
1 | 37 | 209 | 3090 | 3550 | 62 | Active | 66 | 1440 | 145 | – | COc1cc2c(cc1O)c[n+]([O-])c1c3ccc4cc(O)ccc4c3n(C)c21 | 50
2 | 32 | 115 | 447 | 316 | 32 | – | 105 | 537 | 26 | – | COc1cc2c(cnc3c4ccc5cc(O)ccc5c4n(CCCCl)c23)cc1O | 25
3 | < 1 | 8.8 | 1.8 | 33 | 2.5 | – | 9.6 | 9.4 | 1.3 | – | COc1cc2c(ccc3c4c(=O)oc5cc(O)c(OC)cc5c4n(C)c23)cc1O | 2.6
4 | 257 | 200 | 631 | 437 | 282 | – | 437 | 759 | 123 | – | COc1cc2c(cnc3c4ccc5cc(O)ccc5c4n(C)c23)cc1O | 178
5 | 331 | 324 | 15800 | 1950 | 141 | inactive | 40 | 9550 | 38 | – | COc1cc2c(cnc3c4ccc5cc(O)ccc5c4n(CCCn4ccnc4)c23)cc1O | 44
6 | 20 | 65 | 380 | 912 | < 10 | Active | 13 | 380 | < 10 | Active | COc1cc2c(cnc3c4ccc5cc(O)ccc5c4n(CCN(C)C)c23)cc1O | < 10
7 | 1100 | 309 | 1550 | 562 | 759 | – | 263 | 1820 | 708 | Active | COc1cc2c(cnc3c4ccc5cc(O)ccc5c4n(CCCN4CCC(N5CCCCC5)CC4)c23)cc1O | 363
8 | < 10 | < 10 | 49 | 19 | < 10 | Active | < 10 | 18 | < 10 | Active | COc1cc2c(cnc3c4ccc5cc(O)ccc5c4n(CCCN4CCOCC4)c23)cc1O | < 10
